Experiments:
MDA-MB-468 cells = experiment: DAPI staining, apoptotic cells; type: cell-based, human; conditions: 2, 5, 10 μM, 48 h
Method: Cells were grown on sterile coverslips at a density of 7×10^5 cells/plate in 35-mm plate. After 24 h, cells incubated in media containing serum-free for 3 h. Then, cells were treated with U75302 (0.5, 1 μM), LY255283 (5, 10 μM) and incubated at 37° C. for 48 h. Then, cells were fixed with 70% cold-ethanol for 30 min at room temperature, and then washed once with PBS. DAPI (50 ng/ml) was added to the fixed cells, incubated for 20 min at room temperature, and washed with PBS. Cells were mounted and examined by fluorescence microscopy. Apoptotic cells were identified by the condensation and fragmentation of their nuclei. The percentage of apoptotic cells was calculated as the ratio of apoptotic cells to total cells counted. A minimum of 500 cells were counted for each treatment.

LNCaP cells [1] = experiment: MTT assay, cell viability; type: cell-based, human; conditions: increasing concentration, 48 hr, serum free RPMI 1640
Method: The effect of LY255283, BLT2 antagonist, on cell viability was examined by MTT assay. PWR-1E cells were seeded at a density of 1.0×10^4 cells/well and LNCaP cells were seeded at a density of 1.5×10^4 cells/well in 96-well culture dishes. After 36 hr, the medium was replaced with serum free RPMI 1640 and cells were stimulated with DMSO or LY255283 of increasing concentration. MTT (1 mg/mu) was added at 48 hr after LY255283 treatment and after 4 hr of further incubation the medium was replaced with DMSO. Then cells were incubated at room temperature for 10 min. The spectrophotometric absorbance of the samples was determined by using Ultra Multifunctional Microplate Reader at 540 nm. LNCaP cells and PWR-1E cells were stimulated with LY255283 of various concentration in serum free RPM11640.

LNCaP cells [2] = type: cell-based, human; conditions: 5 μM, 48 hr
Method: DNA fragmentation was shown by the harvesting of total cellular DNA. Cells were grown in 10 cm plates to 70% confluence with 10% FBS-supplemented medium. Then the media was replaced with serum free RPMI 1640 and the cells were treated with 5 μM LY255283 for 48 hr. Cellular DNA from cells was extracted incubating with lysis buffer (1 mM EDTA, 10 mM Tris, 120 mM NaCl, 1% SDS and 100 μg/ml proteinase K, pH 8.0) for 12 hr at 50° C. The lysate was centrifuged for 10 min at 13,000×g to separate the fragment DNA. The supernatant was then extracted twice with phenol/chloroform/isoamyl alcohol and precipitated with absolute ethanol. […] After electrophoresis, gels were stained with ethidium bromide, and the DNA was visualized by UV light.

PWR-1E cells = experiment: cell cycle analysis / apoptosis measurement; type: cell-based; conditions: 5 μM, 48 hr
Method: After LNCaP cells and PWR-1E cells were treated with 5 μM LY255283 for 48 hr, the cells were fixed with 70% ethanol and stained with Pl. Cell cycle was analyzed using flow cytometry. The cells grown in 6-well cluster dishes were stimulated with 5 μM LY255283 for 48 h in serum free RPMI 1640. The cells which were collected by brief trypsinization were fixed for 12 hr with 70% ethanol at 4° C. The cells were resuspended in PBS containing RNase A (100 μg/ml) and incubated for 30 min at 37° C. The cells were stained with propidium iodide (50 μg/ml) (Sigma). Acquisition and analysis was performed by FACS using Cell Quest Alias software (BD Bioscience).

Rat2-BLT2 cells = experiment: experimental metastasis assay, lung metastasis driven by BLT2; type: in vivo, nude mice; conditions: intraperitoneal 3 and 5 days after cell injection, 21 days
Method: All experimental animals used in this study were treated according to guidelines approved by the Institutional Animal Care and Use Committee of Korea University. Female nude mice (Charles River, Wilmington, Mass.), four-weeks-old at the time of injection, were used in the experimental metastasis assay. Rat-2, Rat2-HO6, and Rat2-BLT2 cells (5×10^5 cells) were prepared for injection from cultures in logarithmic growth at the time of harvest. The cells were briefly treated with 0.025% trypsin and 0.1% EDTA in Hanks' balanced salt solution and quickly removed from trypsin by centrifugation, resuspended in saline containing LTB4, and injected within 1 hr in 0.1 ml into the lateral tail vein with a 26-gauge needle. For inhibitor experiments, U75302 and LY255283 (0.25 mg/kg for BLT1 antagonist and 2.5 mg/kg for BLT2 antagonist) was injected intraperitoneal ˜3 and 5 days after injection of cells that were pretreated with inhibitors. […]
In vivo lung metastasis driven by H-Ras^V12 (panel B of FIG. 2a) or BLT2 (panel C of FIG. 2a) was reduced by BLT2 inhibition (LY255283) based on the macroscopic and histologic appearance of lung. […] Mice were euthanized 21 days after cell injection, and the number of lung metastasis nodules and weight of lung was analyzed in each group. […] Metastasis survival was analyzed in Kaplan-Meyer plots.

SMILES	apoptosis (DAPI staining) (MDA-MB-468 cells)	LNCaP cell viability (MTT) (LNCaP cells [1])	DNA fragmentation (LNCaP cells [2])	apoptosis in prostate normal cells (PWR-1E cells)	lung metastasis driven by BLT2 (Rat2-BLT2 cells)
CCc1cc(C(C)=O)c(O)cc1OCCCCCC(C)(C)c1nnn[nH]1 [LY255283, 1-[5-ethyl-2-hydroxy-4-[[6-methyl-6-(1H-tetrazol-5-yl)heptyl]oxy]phenyl]-ethanone]	induces apoptosis via a dose-dependent manner	dose dependent reduction	A smear of different sizes of DNA fragments was observed	but not prostate normal cells	–
CCCCC/C=C\C[C@@H](O)/C=C/c1cccc(C[C@@H](O)CCCCO)n1 [U75302]	–	–	–	–	caused no suppression on metastasis

Reference: patent US8518889B2, “Method of treating cancer with antibodies against long-form leukotriene B4 receptor BLT2” (Korea University Research & Business Foundation, priority 2007, dated 2013)
